Measurements reported in patent US20050059731A1, “Erythrosin-based antimicrobial photodynamic therapy compound and its use” (CeramOptec Industries, Inc., priority 2003, published 2005).

Tested on: Streptococcus mutans DSM6178 (ATCC 35668)
Assay: Photodynamic inactivation of bacterial cell suspensions of Streptococcus mutans by Erythrosin B gel
Assay type: cell-based
Settings: in saliva; general statement
Experimental: Photodynamic Inactivation of Bacterial Cell Suspensions of Streptococcus mutans by Erythrosin B: The organism used in this study was Streptococcus mutans DSM6178 (ATCC 35668). Gram-positive Streptococcus spec. are jointly responsible for the development of oral caries. Streptococcus mutans cells were grown aerobically overnight at 37° C. in Tryptic Soy Broth (Merck KGaA Darmstadt, Germany). Cells were harvested by centrifugation and resuspended in sterile phosphate-buffered saline (PBS) supplemented with 10% sterile filtered natural saliva. The final OD (Optical Density) at 600 nm, for a 1 cm path length, in all cases was 0.05. About 0.5 ml of an Erythrosin B gel of hydroxyethyl cellulose (1 mM, 2 mM, 3 mM and 8 mM Erythrosin B) were placed at the bottom of a tube. The gel was layered with 0.5 ml of the bacterial suspension and exposed for 1, 3 or 5 minutes, respectively under slight shaking at room temperature. After exposure 250 μl of the suspension was placed in a new tube, the tube was centrifuged, the supernatant was removed and the cell pellet was resuspended in 250 μl of PBS+10% natural saliva (sterile filtered). […] The fluence rate for these settings was about 0.1 W/cm^2 (measured with Optometer P-9710, Gigahertz-Optik GmbH, Puchheim, Germany). […]

## O.O=C([O-])c1ccccc1-c1c2cc(I)c(=O)c(I)c-2oc2c(I)c([O-])c(I)cc12.[Na+].[Na+] [Erythrosin B]
  photosensitizing effectiveness against Gram-positive bacteria: effective photosensitizing substance against Gram-positive bacteria in saliva
